Experimental data published in PubChem BioAssay (NCI).
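A five-concentration, 48-hour dose response in 96-well plates underlies each endpoint, interpolated linearly between surrounding concentrations. Definition used: TGI = concentration required for complete inhibition of growth.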

What was measured:
Test in all cases: NCI-60 cell line screen, 48 h
COLO 205 colon = tested on: COLO 205 colon
K-562 leukemia = tested on: K-562 leukemia
A549 NSCLC = tested on: A549 NSCLC
M19-MEL melanoma = tested on: M19-MEL melanoma
LXFL 529 NSCLC = tested on: LXFL 529 NSCLC
CCRF-CEM leukemia = tested on: CCRF-CEM leukemia
NCI-H460 lung = tested on: NCI-H460 lung
MALME-3M melanoma = tested on: MALME-3M melanoma
LOX IMVI melanoma = tested on: LOX IMVI melanoma
SK-MEL-5 melanoma = tested on: SK-MEL-5 melanoma
NCI-H23 lung = tested on: NCI-H23 lung
SNB-78 CNS = tested on: SNB-78 CNS
SW-620 colon = tested on: SW-620 colon
UACC-257 melanoma = tested on: UACC-257 melanoma
SK-OV-3 ovarian = tested on: SK-OV-3 ovarian
TK-10 renal = tested on: TK-10 renal
DLD-1 colon = tested on: DLD-1 colon
M14 melanoma = tested on: M14 melanoma
CAKI-1 renal = tested on: CAKI-1 renal
786-0 renal = tested on: 786-0 renal
OVCAR-4 ovarian = tested on: OVCAR-4 ovarian
UACC-62 melanoma = tested on: UACC-62 melanoma
KM12 colon = tested on: KM12 colon
SK-MEL-2 melanoma = tested on: SK-MEL-2 melanoma
HCT-116 colon = tested on: HCT-116 colon
SNB-19 CNS = tested on: SNB-19 CNS
HT29 colon = tested on: HT29 colon
OVCAR-8 ovarian = tested on: OVCAR-8 ovarian
HCT-15 colon = tested on: HCT-15 colon
KM20L2 colon = tested on: KM20L2 colon
RXF-631 renal = tested on: RXF-631 renal
SF-268 CNS = tested on: SF-268 CNS
OVCAR-5 ovarian = tested on: OVCAR-5 ovarian
HL-60(TB) leukemia = tested on: HL-60(TB) leukemia
RXF 393 renal = tested on: RXF 393 renal
SK-MEL-28 melanoma = tested on: SK-MEL-28 melanoma
XF 498 CNS = tested on: XF 498 CNS
DMS 114 small cell lung = tested on: DMS 114 small cell lung
SF-539 CNS = tested on: SF-539 CNS
DMS 273 small cell lung = tested on: DMS 273 small cell lung
HCC-2998 colon = tested on: HCC-2998 colon
IGROV1 ovarian = tested on: IGROV1 ovarian
SNB-75 CNS = tested on: SNB-75 CNS
OVCAR-3 ovarian = tested on: OVCAR-3 ovarian
EKVX NSCLC = tested on: EKVX NSCLC
MOLT-4 leukemia = tested on: MOLT-4 leukemia
RPMI-8226 leukemia = tested on: RPMI-8226 leukemia
ACHN renal = tested on: ACHN renal
U251 CNS = tested on: U251 CNS
SN12C renal = tested on: SN12C renal
HOP-62 NSCLC = tested on: HOP-62 NSCLC
HOP-92 NSCLC = tested on: HOP-92 NSCLC
NCI-H226 lung = tested on: NCI-H226 lung
UO-31 renal = tested on: UO-31 renal
NCI-H522 lung = tested on: NCI-H522 lung
A498 renal = tested on: A498 renal
HOP-18 NSCLC = tested on: HOP-18 NSCLC
SF-295 CNS = tested on: SF-295 CNS
SR leukemia = tested on: SR leukemia

Measured: TGI

O=C1C=C(Nc2ccccc2C(=O)CC(=O)C(=O)Nc2cccc([N+](=O)[O-])c2)c2ccccc2C1=O
55.2 µM: OVCAR-3 ovarian
53.8 µM: XF 498 CNS
81.8 µM: SN12C renal
78.5 µM: UACC-257 melanoma
70.6 µM: NCI-H522 lung
15.6 µM: HL-60(TB) leukemia
23.1 µM: LOX IMVI melanoma
53.6 µM: RPMI-8226 leukemia
86.8 µM: UACC-62 melanoma
26.3 µM: SK-MEL-5 melanoma
88.6 µM: SF-268 CNS
84.9 µM: DMS 114 small cell lung
87.8 µM: CCRF-CEM leukemia
19.3 µM: M19-MEL melanoma
87 µM: SW-620 colon
46.7 µM: MALME-3M melanoma
not listed: HOP-18 NSCLC | SF-295 CNS | SR leukemia
> 100 µM: all other assays above

CCC(=O)OC[n+]1ccc2c(C)c3[nH]c4ccccc4c3c(C)c2c1
2.51 µM: SK-MEL-5 melanoma
0.701 µM: HOP-18 NSCLC
1.88 µM: SF-295 CNS
1.55 µM: COLO 205 colon
2.3 µM: KM20L2 colon
2.34 µM: HOP-92 NSCLC
2.55 µM: SNB-75 CNS
0.725 µM: MOLT-4 leukemia
1.78 µM: LXFL 529 NSCLC
6.18 µM: HL-60(TB) leukemia
1.91 µM: RXF-631 renal | OVCAR-5 ovarian
1.95 µM: DMS 114 small cell lung
3.18 µM: TK-10 renal
2.68 µM: CCRF-CEM leukemia | OVCAR-3 ovarian
2 µM: M19-MEL melanoma
2.2 µM: RPMI-8226 leukemia
2.36 µM: HT29 colon
0.553 µM: SR leukemia
1.76 µM: ACHN renal

O=C(O)CCC1CCc2cccc(O)c2C1=O (stereo unspecified)
not listed: A549 NSCLC | MALME-3M melanoma | SK-MEL-5 melanoma | SW-620 colon | UACC-257 melanoma | TK-10 renal | DLD-1 colon | CAKI-1 renal | 786-0 renal | KM12 colon | SK-MEL-2 melanoma | HCT-116 colon | HT29 colon | OVCAR-8 ovarian | SF-268 CNS | OVCAR-5 ovarian | HCC-2998 colon | SNB-75 CNS | OVCAR-3 ovarian | EKVX NSCLC | HOP-62 NSCLC | NCI-H226 lung | UO-31 renal | NCI-H522 lung | SF-295 CNS | SR leukemia
> 100 µM: all other assays above

CCCCCCCCCCCC(=O)OCCOCCOCCOCCOCCOC(=O)CCCCCCCCCCC
not listed: XF 498 CNS | SF-539 CNS
> 100 µM: all other assays above

CCCCCCCCCCCCCP(=O)(O)O
not listed: K-562 leukemia | CAKI-1 renal | MOLT-4 leukemia | RPMI-8226 leukemia | SR leukemia
> 100 µM: all other assays above
